Tests used:
[1] = system: TG2-specific A20 cells expressing DQ2.5 and DQ2.5-glia-ω2 TCR transfectants; assay: Effect of primary amines on T-cell response to deamidated gluten peptide (off-target/toxicity control); format: cell-based, Murine A20 B cells and BW58α–β– cells; conditions: 30 min pre-incubation of A20 cells with amine, then D-ω-gliadin 34-mer and DQ2.5-glia-ω2 TCR transfectants; IL-2; Figure S6
Protocol: The B‐cell/T‐cell collaboration assays were set up as previously described. To compare the uptake and presentation of different gluten peptides to T cells, A20 cells (5 mill/mL) expressing the TG2‐specific BCR (679‐14‐E06) and HLA DQ2.5 were incubated with recombinant TG2 (final 3 µg/mL) and varying amounts of N‐α‐gliadin 20‐mer, N‐ω‐gliadin 19‐mer, or N‐γ‐gliadin 21‐mer in RPMI supplemented with 2 mM CaCl2. After a 30 min incubation at 37°C the cells were washed with 1% FCS/RPMI and resuspended in 5% FCS/RPMI to give a final 1.5 million cells/mL (150 000/well) followed by 2 h incubation at 37°C. Next, TCR‐transfectant cells specific for either DQ2.5‐glia‐α2, DQ2.5‐glia‐ω2, or DQ2.5‐glia‐γ1 were added (25 000/well), followed by overnight incubation at 37°C. The next day, IL‐2 concentration was measured in the culture supernatant by ELISA as previously described. The responsiveness of different TCR transfectants was assessed in the same way, but without the 30 min incubation with TG2, and using the synthetic deamidated peptides (D‐α‐gliadin 20‐mer, D‐ω‐gliadin 17‐mer, and D‐γ‐gliadin 21‐mer). […]
or T cells in our cellular assays. […] T-cell activation was assessed b y ELISA quant ification of IL-2 secreted into the cell culture medium. […]

[2] = system: TCR-transfectant cells specific for DQ2.5-glia-α2 or DQ2.5-glia-ω2; assay: Inhibition by primary amines of gluten-specific T-cell stimulation via TG2-specific B cells, both epitopes; format: cell-based; conditions: native α-gliadin 33-mer and ω-gliadin 34-mer, IL-2 production, Table S2, read-out: IC50, inhibition of T-cell stimulation (range)
Text: (§1) Murine A20 B lymphoma cells engineered to express either the celiac patient‐derived TG2‐specific BCR 679‐14‐E06 or the non‐TG2‐specific BCR 693‐2‐F02 as human IgD are previously described. For B‐cell/T‐cell collaboration assays, we used A20 BCR transfectants also transduced to express HLA‐DQ2.5 [27]. Murine BW58α^–β^– cells were retrovirally transduced to express human CD4 as well as the celiac patient‐derived gluten‐specific TCR from a DQ2.5‐glia‐γ1‐reactive T‐cell clone (TCC 4.32) as previously described. The generation of TCR transfectants expressing DQ2.5‐glia‐α2‐reactive TCR (TCC 364.14) and DQ2.5‐glia‐ω2‐reactive TCR (clone 737.30) have been described previously.
The B‐cell/T‐cell collaboration assays were set up as previously described. […] The next day, IL‐2 concentration was measured in the culture supernatant by ELISA as previously described. The responsiveness of different TCR transfectants was assessed in the same way, but without the 30 min incubation with TG2, and using the synthetic deamidated peptides (D‐α‐gliadin 20‐mer, D‐ω‐gliadin 17‐mer, and D‐γ‐gliadin 21‐mer). […]

[3] = system: TCR-transfectant cells specific for DQ2.5-glia-α2; assay: Inhibition by primary amines of activation of DQ2.5-glia-α2-specific T cells by TG2-specific B cells, IL-2 ELISA; format: cell-based; conditions: for IC50: 5 µM N-α-gliadin 33-mer, TG2, CaCl2, amine 0-1000 µM, IL-2 ELISA
Text: as §1
The B‐cell/T‐cell collaboration assays were set up as previously described. To compare the uptake and presentation of different gluten peptides to T cells, A20 cells (5 mill/mL) expressing the TG2‐specific BCR (679‐14‐E06) and HLA DQ2.5 were incubated with recombinant TG2 (final 3 µg/mL) and varying amounts of N‐α‐gliadin 20‐mer, N‐ω‐gliadin 19‐mer, or N‐γ‐gliadin 21‐mer in RPMI supplemented with 2 mM CaCl2. After a 30 min incubation at 37°C the cells were washed with 1% FCS/RPMI and resuspended in 5% FCS/RPMI to give a final 1.5 million cells/mL (150 000/well) followed by 2 h incubation at 37°C. Next, TCR‐transfectant cells specific for either DQ2.5‐glia‐α2, DQ2.5‐glia‐ω2, or DQ2.5‐glia‐γ1 were added (25 000/well), followed by overnight incubation at 37°C. The next day, IL‐2 concentration was measured in the culture supernatant by ELISA as previously described. The responsiveness of different TCR transfectants was assessed in the same way, but without the 30 min incubation with TG2, and using the synthetic deamidated peptides (D‐α‐gliadin 20‐mer, D‐ω‐gliadin 17‐mer, and D‐γ‐gliadin 21‐mer). To assess how TG2 secondary substrate affects peptide uptake and presentation to T cells, TG2‐specific A20 cells expressing DQ2.5 were incubated with TG2, CaCl2, 5 µM N‐ω‐gliadin 34‐mer, or 5 µM N‐α‐gliadin 33‐mer in the presence of primary amines at increasing concentrations (0‐1000 µM), before the addition of TCR‐transfectant cells specific for the DQ2.5‐glia‐α2 or DQ2.5‐glia‐ω2 epitopes. The dose‐response curve fitting to find IC50 was done using the “[Inhibitor] vs. response” equation in GraphPad Prism 8.3.0. To examine whether primary amines directly affect the B cells, TG2‐specific A20 cell expressing DQ2.5 were incubated with primary amines for 30 min and washed, before addition of 2 µM D‐ω‐gliadin 34‐mer, followed by incubation with DQ2.5‐glia‐ω2 TCR transfectants.

[4] = DQ2.5-glia-α2, replicate Figure S5A
[5] = DQ2.5-glia-α2, replicate Figure S5B
[6] = logIC50, DQ2.5-glia-α2, Figure 5
[7] = logIC50, DQ2.5-glia-α2, replicate Figure S5A
[8] = logIC50, DQ2.5-glia-α2, replicate Figure S5B

IC50 [2] [µM]	IC50 ([3]; DQ2.5-glia-α2, Figure 5) [µM]	IC50 ([3]; DQ2.5-glia-α2, mean) [µM]	IC50 [3, 4] [µM]	IC50 [3, 5] [µM]	Compound	toxic effect on B cells or T cells in cellular assays [1]	logIC50 ([3]; DQ2.5-glia-α2, Figure 5)	logIC50 ([3]; DQ2.5-glia-α2, mean)	logIC50 [3, 4]	logIC50 [3, 5]	log 95% CI lower limit [3, 6]	log 95% CI upper limit [3, 6]	log 95% CI lower limit ([3]; logIC50, DQ2.5-glia-α2, mean)	log 95% CI upper limit ([3]; logIC50, DQ2.5-glia-α2, mean)	log 95% CI lower limit [3, 7]	log 95% CI upper limit [3, 7]	log 95% CI lower limit [3, 8]	log 95% CI upper limit [3, 8]
27 to 58	42.7	53.3	23.7	93.6	NCCCCCNC(=O)CCCC[C@@H]1SC[C@@H]2NC(=O)N[C@@H]21 [5-BP, 5‐biotinamido‐pentylamine]	no toxic effect	1.63	1.66	1.37	1.97	1.48	1.78	1.39	1.93	1.15	1.60	1.54	2.43
27 to 58	77.3	58	17.7	78.9	NCCCNCCCCNCCCN [spermine]	no toxic effect	1.89	1.68	1.25	1.90	1.53	2.27	1.25	2.11	0.638	1.83	1.59	2.22
